# Measured values as given in US20250179066A1, “ZWITTERIONIC ANTIBACTERIAL COMPOUNDS” (Hoffmann-La Roche Inc., priority 2022, published 2025).
# Structures can show the parent of a compound that is named as a salt. Where two headings read alike, the source gives them in different places.
# System: Acinetobacter baumannii ATCC17961
# Experiment: Antimicrobial susceptibility testing: 90% growth inhibitory concentration (IC90) determination
# Format: cell-based
# Conditions: 90% growth inhibitory concentration against Acinetobacter baumannii ATCC17961, Iso-Sensitest broth, OD 600 nm over 16 h, read-out: ATCC 17961 IC90
# Method: The in vitro antimicrobial activity of the compounds was determined according to the following procedure: The assay used a 10-points Iso-Sensitest broth medium to measure quantitatively the in vitro activity of the compounds against Acinetobacter baumannii ATCC17961. Stock compounds in DMSO were serially twofold diluted (e.g. range from 10 to 0.0195 μM final concentration) in 384 wells microtiter plates and inoculated with 49 μL the bacterial suspension in Iso-Sensitest medium to have a final cell concentration of ˜5×10^(5) CFU/mL in a final volume/well of 50 μL/well. Microtiter plates were incubated at 35±2° C. Bacterial cell growth was determined with the measurement of optical density at λ=600 nm each min over a time course of 16 h. Growth inhibition was calculated during the logarithmic growth of the bacterial cells with determination of the concentration inhibiting 50% (IC50) and 90% (IC90) of the growth. Table 1 provides the 90% growth inhibitory concentrations (IC90) in micromoles per liter of the compounds of present invention obtained against the strain Acinetobacter baumannii ATCC17961.
# [1] = Acinetobacter baumannii, ATCC17961, 16 h
Structure (SMILES),IC90 [1],IC90
"Cn1c(-c2cn(-c3ccc(NCCCN)cn3)nc2C(F)(F)F)cnc1C(=O)Nc1ccc(C(=O)N2CCN(C(=O)[C@H]3CC[N@+](CC(=O)O)(CC4CNC4)CC3)CC2)c(Cl)c1 [Example 15, cis-2-[4-[4-[4-[[5-[1-[5-(3-aminopropylamino)-2-pyridyl]-3-(trifluoromethyl)pyrazol-4-yl]-1-methyl-imidazole-2-carbonyl]amino]-2-chloro-benzoyl]piperazine-1-carbonyl]-1-(azetidin-3-ylmethyl)piperidin-1-ium-1-yl]acetic acid. 1:1 2,2,2-trifluoroacetic acid. 1:1 2,2,2-trifluoroacetate]",210 nM,
"Cn1c(-c2cn(-c3ccc(N)cc3F)nc2C(F)(F)F)cnc1C(=O)Nc1ccc(C(=O)N2CCN(C(=O)[C@H]3CC[N@+](CC(=O)O)(CC4CNC4)CC3)CC2)c(Cl)c1 [Example 16, cis-2-[4-[4-[4-[[5-[1-(4-amino-2-fluoro-phenyl)-3-(trifluoromethyl)pyrazol-4-yl]-1-methyl-imidazole-2-carbonyl]amino]-2-chloro-benzoyl]piperazine-1-carbonyl]-1-(azetidin-3-ylmethyl)piperidin-1-ium-1-yl]acetic acid. 1:1 2,2,2-trifluoroacetate]",210 nM,
"Cn1c(-c2cn(-c3ccc(N)cn3)nc2C(F)(F)F)cnc1C(=O)Nc1ccc(C(=O)N2CCN(C(=O)CCC[N+](CCCCN)(CCCCN)CC(=O)O)CC2)c(Cl)c1 [Example 20, bis(4-aminobutyl)-[4-[4-[4-[[5-[1-(5-amino-2-pyridyl)-3-(trifluoromethyl)pyrazol-4-yl]-1-methyl-imidazole-2-carbonyl]amino]-2-chloro-benzoyl]piperazino]-4-keto-butyl]-(carboxymethyl)ammonium. 1:1 2,2,2-trifluoroacetic acid. 1:1 2,2,2-trifluoroacetate]",,300 nM

# The next lines start with results.
IC90 [1],Structure (SMILES),IC90
240 nM,"Cn1c(-c2cn(-c3ccc(N)cc3F)nc2C(F)(F)F)cnc1C(=O)Nc1ccc(C(=O)N2CCN(C(=O)C3CC[N+](CC(=O)O)(CC4CNC4)CC3)CC2)c(Cl)c1 (stereo not shown) [Example 17, 2-[4-[4-[4-[[5-[1-(4-amino-2-fluoro-phenyl)-3-(trifluoromethyl)pyrazol-4-yl]-1-methyl-imidazole-2-carbonyl]amino]-2-chloro-benzoyl]piperazine-1-carbonyl]-1-(azetidin-3-ylmethyl)piperidin-1-ium-1-yl]acetic acid. 1:1 2,2,2-trifluoroacetate]",
260 nM,"Cn1c(-c2cn(-c3ccc4[nH]ccc4n3)nc2C(F)(F)F)cnc1C(=O)Nc1ccc(C(=O)N2CCN(C(=O)C3CC[N+](CC(=O)O)(CC4CNC4)CC3)CC2)c(Cl)c1 (stereo not shown) [Example 18, 2-[1-(azetidin-3-ylmethyl)-4-[4-[2-chloro-4-[[1-methyl-5-[1-(1H-pyrrolo[3,2-b]pyridin-5-yl)-3-(trifluoromethyl)pyrazol-4-yl]imidazole-2-carbonyl]amino]benzoyl]piperazine-1-carbonyl]piperidin-1-ium-1-yl]acetic acid. 1:1 formate]",
260 nM,"C[C@H](N)CNc1ccc(-n2cc(-c3cnc(C(=O)Nc4ccc(C(=O)N5CCN(C(=O)C6CC[N+](CC(=O)O)(CC7CNC7)CC6)CC5)c(Cl)c4)n3C)c(C(F)(F)F)n2)nc1 (stereo partly drawn) [Example 19, 2-[4-[4-[4-[[5-[1-[5-[[(2S)-2-Aminopropyl]amino]-2-pyridyl]-3-(trifluoromethyl)pyrazol-4-yl]-1-methyl-imidazole-2-carbonyl]amino]-2-chloro-benzoyl]piperazine-1-carbonyl]-1-(azetidin-3-ylmethyl)piperidin-1-ium-1-yl]acetic Acid.1:1 formic Acid.1:1 formate]",
320 nM,"Cn1c(-c2cn(-c3ccc(CN)cn3)nc2C(F)(F)F)cnc1C(=O)Nc1ccc(C(=O)N2CCN(C(=O)C3CC[N+](CC(=O)O)(CC4CNC4)CC3)CC2)c(Cl)c1 (stereo not shown) [Example 21, 2-[4-[4-[4-[[5-[1-[5-(Aminomethyl)-2-pyridyl]-3-(trifluoromethyl)pyrazol-4-yl]-1-methyl-imidazole-2-carbonyl]amino]-2-chloro-benzoyl]piperazine-1-carbonyl]-1-(azetidin-3-ylmethyl)piperidin-1-ium-1-yl]acetic Acid.1:1 formic Acid.1:1 formate]",
